Experiments:
Malassezia globosa = test: Antifungal inhibition test on agar (Malassezia suspension, growth scored against control); assay type: cell-based; parameters: key to inhibition score (density of the culture at the surface of the agar vs growth control): 3: No growth; 2: Growth < in the control dish; 1: Growth < in the control dish; 0: Growth comparable to the control dish; conditions: positive reference 1% zinc pyrithione
Procedure: (§1) The test product is brought into contact with the Malassezia suspension. The mixture is deposited at the surface of agar medium. It is spread and the excess is recovered before incubation. It is incubated for at least 5 days at 30° C.
(§2) The products are placed in solution in liquid modified Leeming and Notman medium (LNm) and the tests are carried out in duplicate. The complete culture is at 7.5 g/l or 150 g/l (concentrated version) on a dry matter basis.
(§3) The complete culture was tested at 10% (for the concentration at 7.5 g/l) and at 1% (for the concentration at 150 g/l).
(§4) The positive reference is 1% zinc pyrithione.
(§5) The solutions of the products are twice as concentrated in order to take into account the dilution to ½ during the bringing into contact with the Malassezia suspension.
(§6) The Malassezia globosa and restricta strains were received on agar slopes and were subcultured and incubated at 30° C. until the tests.
(§7) The suspensions are prepared in 15 ml of a buffered solution (ref AEB611294, AES).
(§8) The density of the suspensions is taken at 550 nm.
(§9) The antifungal effect of the reference product is evaluated via the absence of growth of the Malassezia strain tested. This inhibition is evaluated relative to the growth control.
(§10) The inhibitions are scored from 3 to 0 via assessment of the density of the culture at the surface of the agar, in comparison with the growth control for the strain.

Malassezia restricta = test: as above; assay type: cell-based; parameters: key to inhibition score (density of the culture at the surface of the agar vs growth control): 3: No growth; 2: Growth < in the control dish; 1: Growth < in the control dish; 0: Growth comparable to the control dish; conditions: positive reference 1% zinc pyrithione
Procedure: as §1, §2, §3, §4, §5, §6, §7, §8, §9, §10

Zinc pyrithione
inhibition in words (Malassezia globosa): Total inhibition
inhibition score (density of the culture at the surface of the agar vs growth control) (Malassezia globosa; at least 5 days at 30° C.): 3
inhibition in words (Malassezia restricta): Total inhibition
inhibition score (density of the culture at the surface of the agar vs growth control) (Malassezia restricta; at least 5 days at 30° C.): 3

Source: patent US10046014B2, “Useful active agent for preventing and/or treating dandruff conditions of the scalp” (L'OREAL, priority 2011, dated 2018)
